Data on three compounds can be found in patent US20210395313A1, “PEPTIDE PAC1 ANTAGONISTS” (AMGEN INC., priority 2017, published 2021).

The target of one assay is T1, rat PAC1 receptor (Rattus norvegicus, UniProt P32215).
T1 construct: SHSY-5Y (human neuroblastoma cell line) and RG-2 (rat glioma cell line) cells endogenously express human and rat PAC1 receptors, respectively; endogenous in cells; host or cells: RG-2 rat glioma cells
T1 sequence (P32215 20-523): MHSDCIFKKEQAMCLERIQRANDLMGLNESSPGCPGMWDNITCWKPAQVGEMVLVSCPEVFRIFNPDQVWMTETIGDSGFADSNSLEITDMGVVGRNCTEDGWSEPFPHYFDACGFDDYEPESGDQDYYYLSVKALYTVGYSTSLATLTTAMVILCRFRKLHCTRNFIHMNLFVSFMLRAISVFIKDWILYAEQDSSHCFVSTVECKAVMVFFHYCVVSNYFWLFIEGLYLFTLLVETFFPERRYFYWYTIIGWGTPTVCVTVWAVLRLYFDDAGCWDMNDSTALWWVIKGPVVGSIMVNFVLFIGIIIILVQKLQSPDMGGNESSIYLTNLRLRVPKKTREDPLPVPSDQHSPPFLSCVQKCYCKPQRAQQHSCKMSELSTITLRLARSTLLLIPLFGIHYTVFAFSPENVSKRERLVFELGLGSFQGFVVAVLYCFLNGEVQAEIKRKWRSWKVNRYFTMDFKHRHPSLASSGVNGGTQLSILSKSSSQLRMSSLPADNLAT
Briefly: LANCE Ultra cAMP accumulation antagonist assay in RG-2 cells.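 Also: RG-2 rat glioma cells endogenously expressing PAC1, test peptide preincubated 30 min, then PAC1 agonist added at its EC80 for 15 min, cAMP accumulation read by LANCE Ultra.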 In kind it is cell-based. On the technique in general: Time-resolved FRET reads energy transfer from a long-lived donor to a nearby acceptor.

The target in a further assay is T2, human PAC1 receptor (Homo sapiens, UniProt P41586).
T2 construct: SHSY-5Y (human neuroblastoma cell line) and RG-2 (rat glioma cell line) cells endogenously express human and rat PAC1 receptors, respectively; endogenous in cells; host or cells: SHSY-5Y human neuroblastoma cells
T2 sequence (P41586 21-468): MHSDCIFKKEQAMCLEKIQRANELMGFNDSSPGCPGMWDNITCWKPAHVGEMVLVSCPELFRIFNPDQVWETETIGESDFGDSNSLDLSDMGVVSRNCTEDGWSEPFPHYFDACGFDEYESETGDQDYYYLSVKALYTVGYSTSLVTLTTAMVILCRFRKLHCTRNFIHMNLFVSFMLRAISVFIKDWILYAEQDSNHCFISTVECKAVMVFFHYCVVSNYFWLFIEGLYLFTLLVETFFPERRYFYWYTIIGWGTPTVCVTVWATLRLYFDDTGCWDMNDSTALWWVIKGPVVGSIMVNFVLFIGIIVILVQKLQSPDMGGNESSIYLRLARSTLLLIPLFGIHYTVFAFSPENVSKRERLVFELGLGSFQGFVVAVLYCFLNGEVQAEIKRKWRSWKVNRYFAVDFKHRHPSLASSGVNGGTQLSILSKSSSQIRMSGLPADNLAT
Briefly: LANCE Ultra cAMP accumulation antagonist assay in SHSY-5Y cells.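 Also: inhibition of cAMP accumulation evoked by PAC1 agonist at its EC80 in SHSY-5Y cells endogenously expressing receptor, 30 min preincubation then 15 min agonist, TR-FRET readout.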 In kind it is cell-based.

Where a SMILES comes first, the peptide text is derived from it. Bridges are numbered along the chain shown (N, C = ends).

By IC50 is commonly meant the concentration that gives 50% inhibition. Low values mean greater potency, high ones weaker potency.

As for `CC[C@H](C)[C@H](NC(=O)[C@H](C)NC(=O)[C@H](CCCCN)NC(=O)[C@H](CCCNC(=N)N)NC(=O)[C@H](Cc1ccccc1)NC(=O)[C@H](CCC(N)=O)NC(=O)[C@@H]1CSSC[C@H](NC(C)=O)C(=O)N[C@@H](CC(=O)O)C(=O)N[C@@H](C)C(=O)N[C@@H]([C@@H](C)O)C(=O)N1)C(=O)N[C@@H](CC(=O)O)C(=O)N[C@@H](CC(=O)O)C(=O)N[C@H]1CSSC[C@@H](C(=O)N[C@@H](CCSC)C(=O)N[C@@H](CCCCN)C(=O)N[C@@H](CCC(N)=O)C(=O)N[C@@H](CCCCN)C(=O)N[C@@H](CCCCN)C(=O)N[C@@H](CCCCN)C(=O)N[C@@H](CCC(=O)O)C(=O)N[C@@H](Cc2ccccc2)C(=O)N[C@@H](CCCCN)C(=O)N[C@@H](C)C(=O)NCC(N)=O)NC(=O)C(C)(C)NC(=O)[C@H](CCCCN)NC(=O)[C@H](Cc2ccccc2)NC(=O)[C@H](C(C)C)NC(=O)[C@H](CO)NC(=O)CNC(=O)[C@@H]2CCCN2C(=O)[C@H](C(C)C)NC(=O)[C@H](CC(N)=O)NC(=O)[C@H](CO)NC(=O)[C@H](Cc2c[nH]cn2)NC(=O)[C@H](Cc2c[nH]cn2)NC(=O)[C@H](C)NC(=O)[C@H](CCC(N)=O)NC(=O)[C@H](CCCCN)NC(=O)[C@H](CCC(N)=O)NC1=O` [SEQ ID NO 253], the IC50 at rat PAC1 receptor and at human PAC1 receptor was 0.01 to 1 nM each time.

As to `CC[C@H](C)[C@H](NC(=O)[C@H](C)NC(=O)[C@H](CCCCN)NC(=O)[C@H](CCCNC(=N)N)NC(=O)[C@H](Cc1ccccc1)NC(=O)[C@H](CCC(N)=O)NC(=O)[C@@H]1CSSC[C@H](N)C(=O)N[C@@H](CC(=O)O)C(=O)N[C@@H](C)C(=O)N[C@@H]([C@@H](C)O)C(=O)N1)C(=O)N[C@@H](CC(=O)O)C(=O)N[C@@H](CC(=O)O)C(=O)N[C@H]1CSSC[C@@H](C(=O)N[C@@H](CCSC)C(=O)N[C@@H](CCCCN)C(=O)N[C@@H](CCC(N)=O)C(=O)N[C@@H](CCCCN)C(=O)N[C@@H](CCCCN)C(=O)N[C@@H](CCCCN)C(=O)N[C@@H](CCC(=O)O)C(=O)N[C@@H](Cc2c[nH]c3ccccc23)C(=O)N[C@@H](CCCCN)C(=O)N[C@@H](C)C(=O)NCC(=O)N[C@@H](Cc2ccc(O)cc2)C(=O)O)NC(=O)[C@H](C)NC(=O)[C@H](CCCCN)NC(=O)[C@H](Cc2ccccc2)NC(=O)[C@H](C(C)C)NC(=O)[C@H](CO)NC(=O)[C@H](CO)NC(=O)[C@H](Cc2c[nH]cn2)NC(=O)[C@H](Cc2c[nH]cn2)NC(=O)[C@H](C)NC(=O)[C@H](CCC(N)=O)NC(=O)[C@H](CCCNC(=N)N)NC(=O)[C@H](C(C)C)NC1=O` [compound 3] (H-CDATCQFRKAIDDCVRQAHHSSVFKACMKQKKKEWKAGY-OH; disulfide 1-5, 14-27), the IC50 against rat PAC1 receptor and at human PAC1 receptor was 0.01 to 1 nM throughout.

Turning to `CSCC[C@H](NC(=O)[C@@H]1CSSC[C@H](NC(=O)[C@H](C)NC(=O)[C@@H](NC(=O)[C@H](CC(C)C)NC(=O)CNC(=O)[C@H](CCCCN)NC(=O)[C@H](CCCNC(=N)N)NC(=O)[C@H](Cc2ccc(O)cc2)NC(=O)[C@H](CCC(N)=O)NC(=O)[C@@H]2CSSC[C@H](N)C(=O)N[C@@H](CC(=O)O)C(=O)N[C@@H](C)C(=O)N[C@@H]([C@@H](C)O)C(=O)N2)C(C)C)C(=O)N[C@@H](C)C(=O)N[C@@H](CCCNC(=N)N)C(=O)N[C@@H](CCC(N)=O)C(=O)N[C@@H](C)C(=O)N[C@@H](Cc2ccc(O)cc2)C(=O)N[C@@H](Cc2c[nH]cn2)C(=O)N[C@@H](CO)C(=O)N[C@@H](CO)C(=O)N[C@@H](C(C)C)C(=O)N[C@@H](Cc2ccccc2)C(=O)N[C@@H](CCCCN)C(=O)N[C@@H](C)C(=O)N1)C(=O)N[C@@H](CCCCN)C(=O)N[C@@H](CCC(N)=O)C(=O)N[C@@H](CCCCN)C(=O)N[C@@H](CCCCN)C(=O)N[C@@H](CCCCN)C(=O)N[C@@H](CCC(=O)O)C(=O)N[C@@H](Cc1c[nH]c2ccccc12)C(N)=O` [compound 5] (H-CDATCQYRKGLVACARQAYHSSVFKACMKQKKKEW-NH2; disulfide 1-5, 14-27), the 50% inhibitory concentration (IC50) at rat PAC1 receptor and against human PAC1 receptor was 1 to 100 nM each time.
